The values below are quoted from earlier work in paper PMC4791286, “Puquitinib mesylate, an inhibitor of phosphatidylinositol 3-kinase p110δ, for treating relapsed or refractory non-Hodgkin's lymphoma” (Oncotarget, 2015).

Series [1] concerns advanced solid tumors and lymphoma. Also noted: method as in PMID 22357447. Conditions: cited from earlier work.
Series [2] relates to p110δ. Also on record: method as in PMID 20959606. Conditions: cited from earlier work.
Series [3] deals with indolent non-Hodgkin lymphoma (iNHL). Also on record: method as in PMID 24615776. Conditions: cited from earlier work.
For series [4], the system named is MCL. Also noted: method as in PMID 24615778. Conditions: n = 40; cited from earlier work.
For series [5], the system named is advanced solid tumors. Conditions: human, in vivo; cited from earlier work.

For `COc1ccc(-c2ccc3ncc4c(c3c2)n(-c2ccc(N3CCNCC3)c(C(F)(F)F)c2)c(=O)n4C)cn1` [BGT226], in series [1], the “AST elevations, Grade 2” value is 9 n and the “AST elevations, Grade 3” value is 3 n.
In general, IC50 refers to the concentration that gives 50% inhibition. For the compound `CC[C@H](Nc1ncnc2[nH]cnc12)c1nc2cccc(F)c2c(=O)n1-c1ccccc1` [Idelalisib], in series [2], the IC50 was […]. Besides, the “Asymptomatic grade 3 or greater serum transaminase elevations” value is reported as 25% in series [3] (iNHL, n = 64) and 35% in series [4]. In addition, the Response rate in series [3] (marginal-zone lymphoma subtype) was 33%.
`C=CCN(/C=C1/C(=O)O[C@H](COC)[C@@]2(C)C1=C(O)C(=O)C1=C2[C@H](OC(C)=O)C[C@]2(C)C(=O)CC[C@@H]12)CC=C` [PX866]: in series [5], the “Grade 3 AST abnormalities” value was 2 of 84 patients.
